Laboratory results published in patent US9200046B2, “Reporter system for high throughput screening of compounds and uses thereof” (priority 2011, dated 2015).
Read-outs that look alike come from different tables or passages of the source.

Molecular target: Nrf2-Keap1 complex (Homo sapiens, UniProt Q14145)
Assay: cell-based
Assay type: cell-based
Details: for activation at 16 µM / activation at 32 µM: 3 h; for activation at 16 µM: read-out: Activation 100 nL; for activation at 32 µM: read-out: Activation 200 nL
[1] = Table 1A, 100 nL compound, screen run at 16 and 32 μM, 3 hr
[2] = Table 1A, 200 nL compound, screen run at 16 and 32 μM, 3 hr
[3] = Table 2, 100 nL compound, screen run at 16 and 32 μM, 3 hr
[4] = Table 2, 200 nL compound, screen run at 16 and 32 μM, 3 hr

Sequence of Nrf2-Keap1 complex (Q14145 whole entry, one chain of several): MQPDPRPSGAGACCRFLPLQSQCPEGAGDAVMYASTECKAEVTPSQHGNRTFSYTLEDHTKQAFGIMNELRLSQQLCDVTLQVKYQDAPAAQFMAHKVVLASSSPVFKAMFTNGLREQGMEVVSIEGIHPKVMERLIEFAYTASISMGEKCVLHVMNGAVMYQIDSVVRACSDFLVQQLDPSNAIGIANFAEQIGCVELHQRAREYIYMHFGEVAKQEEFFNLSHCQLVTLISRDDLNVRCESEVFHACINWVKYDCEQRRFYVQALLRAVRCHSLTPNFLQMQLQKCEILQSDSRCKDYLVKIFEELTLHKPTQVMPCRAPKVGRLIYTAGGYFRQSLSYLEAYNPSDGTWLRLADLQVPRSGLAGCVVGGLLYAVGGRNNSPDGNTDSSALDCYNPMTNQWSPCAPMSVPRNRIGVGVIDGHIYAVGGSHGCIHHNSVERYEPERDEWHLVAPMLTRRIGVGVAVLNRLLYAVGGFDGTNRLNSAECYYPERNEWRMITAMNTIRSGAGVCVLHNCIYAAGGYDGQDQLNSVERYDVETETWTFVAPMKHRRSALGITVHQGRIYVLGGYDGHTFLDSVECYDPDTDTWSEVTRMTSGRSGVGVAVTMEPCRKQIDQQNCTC

| Compound | activation at 16 µM [%] | activation at 32 µM [%] | 100 nL (luminescence) [3] | 200 nL (luminescence) [4] | further results |
| --- | --- | --- | --- | --- | --- |
| C=C(NC(=O)C(=C)NC(=O)c1csc(C2=N[C@@H]3c4csc(n4)[C@H]4NC(=O)c5csc(n5)[C@H]([C@](C)(O)[C@@H](C)O)NC(=O)[C@H]5CSC(=N5)/C(=C/C)NC(=O)[C@H]([C@@H](C)O)NC(=O)c5csc(n5)[C@]3(CC2)NC(=O)[C@H](C)NC(=O)C(=C)NC(=O)[C@H](C)NC(=O)[C@H]([C@@H](C)CC)N[C@@H]2C=Cc3c([C@H](C)O)cc(nc3[C@H]2O)C(=O)O[C@@H]4C)n1)C(N)=O [THIOSTREPTON, reference compound] | 58 | 50 |  |  | 100 nL (luminescence) [1]: 876; 200 nL (luminescence) [2]: 1504 |
| COc1ccc(/C=C/C(=O)c2ccc(O)cc2O)cc1 [2′,4′-DIHYDROXY-4-METHOXYCHALCONE] | 246 | 121 | 4576 | 2720 |  |
| C=C[C@@]1(C)CC(=O)[C@]2(O)[C@@]3(C)[C@@H](O)CCC(C)(C)[C@@H]3[C@H](O)[C@H](OC(C)=O)[C@@]2(C)O1 [COLFORSIN, reference compound] | 91 | 120 | 2208 | 2568 |  |
| C=C(C)[C@H]1Cc2c(ccc3c2O[C@@H]2COc4cc(OC)c(OC)cc4[C@@H]2C3=O)O1 [ROTENONE] | 31 | 30 | 776 | 1136 |  |
| Oc1nc2cc(Cl)c(Cl)cc2nc1O [2,3-DIHYDROXY-6,7-DICHLOROQUINOXALINE] | 46 | 109 | 1056 | 1992 |  |
| COc1ccc2c(c1)OCC(=Cc1ccc(O)c(O)c1)C2=O |  |  | 4822 | 2904 | Activation 100 nL: 292%; Activation 200 nL: 169% |
| CC1(C)C(=O)C=C[C@]2(C)[C@H]3CC[C@@]4(C)[C@H](c5ccoc5)OC(=O)[C@H]5O[C@]54[C@]3(C)[C@H](O)C[C@@H]12 [DEACETYLGEDUNIN] | 69 | -7 | 1412 | 220 |  |
| AMSACRINEHYDROCHLORIDE [reference compound] |  |  |  |  | 100 nL (luminescence): 3384; 200 nL (luminescence): 1264; Activation 100 nL: 345%; Activation 200 nL: 40% |
| O=c1c(O)cccc2cc(O)c(O)c(O)c12 [PURPUROGALLIN] | 156 | 112 | 3508 | 2420 |  |
| CCOc1ccc(C(=O)c2ccc(OC)c(O)c2O)cc1 [2,3-DIHYDROXY-4-METHOXY-4′-ETHOXYBENZOPHENONE] | 117 | 65 | 2142 | 1324 |  |
| C=C(C)[C@@H]1CC[C@]2(C(=O)O)CC[C@]3(C)[C@H](CC[C@@H]4[C@@]5(C)CC[C@H](O)C(C)(C)[C@@H]5CC[C@]43C)[C@@H]12 [BETULINICACID] | 54 | 85 |  |  |  |
| COc1cc(O)c(C(=O)/C=C/c2ccccc2)c(OC)c1 [FLAVOKAWAINB] | 144 | -21 | 2564 | 8 |  |
| COC(=O)c1c(C)cc(O)cc1O [METHYLORSELLINATE] | 31 | 1 | 640 | 368 |  |
| COC(=O)Nc1nc2cc(C(=O)c3ccccc3)ccc2[nH]1 [MEBENDAZOLE, reference compound] | 74 | 216 |  |  | 100 nL (luminescence) [1]: 1872; 200 nL (luminescence) [2]: 3056 |
| COc1ccc(-c2oc3ccccc3c(=O)c2O)cc1OC [3-HYDROXY-3′,4′-DIMETHOXYFLAVONE] | 85 | -6 | 1504 | 316 | fold less effective than quercetin and fisetin (flavone SAR): 2.5 fold |
| O=CC=Cc1ccc(O)cc1 [p-HYDROXYCINNAMALDEHYDE] | 63 | 122 | 1208 | 3256 |  |
| CC1=C(/C=C/C(C)=C/C=C/C(C)=C\C(=O)O)C(C)(C)CCC1 [ISOTRETINON, reference compound] |  |  | 1068 | 1456 | Activation 100 nL: 34%; Activation 200 nL: 86% |

| Compound | activation at 16 µM [%] | activation at 32 µM [%] | 100 nL (luminescence) [3] | 200 nL (luminescence) [4] | further results |
| --- | --- | --- | --- | --- | --- |
| O=c1c(-c2ccccc2)coc2cc(O)cc(O)c12 [5,7-DIHYDROXYISOFLAVONE] | 45 | 58 | 964 | 1776 |  |
| CC(=O)N1CCN(c2ccc(OCC3CO[C@](Cn4ccnc4)(c4ccc(Cl)cc4Cl)O3)cc2)CC1 (some centres unmarked) [KETOCONAZOLE, reference compound] |  |  |  |  | 100 nL (luminescence): 1144; 200 nL (luminescence): 1026; Activation 100 nL: 64%; Activation 200 nL: 33% |
| COc1cc([C@@H]2c3cc4c(cc3[C@@H](O[C@@H]3O[C@@H]5CO[C@@H](C)O[C@H]5[C@H](O)[C@H]3O)[C@H]3COC(=O)[C@H]23)OCO4)cc(OC)c1O [ETOPOSIDE, reference compound] | 40 | 89 | 1180 | 1484 |  |
| CC(C)c1ccc2c(c1O)CC[C@H]1C3=C(CC[C@]21C)C(=O)OC3 [TRIPTOPHENOLIDE] | 35 | -3 | 832 | 390 |  |
| CC(=O)OC1CCC23CC1(C)CCC2C(C)(C)CC3OC(C)=O (centres unmarked) [CLOVANEDIOLDIACETATE] | 27 | 40 | 728 | 1356 |  |
| COC(=O)CC[C@@H](C)[C@H]1CC[C@H]2[C@@H]3[C@H](O)C[C@@H]4C[C@H](O)CC[C@]4(C)[C@H]3C[C@H](O)[C@]12C [CHOLICACID, METHYLESTER] |  |  | 848 | 804 | Activation 100 nL: 36%; Activation 200 nL: 15% |
| CC(=O)NCCc1c[nH]c2ccc(O)cc12 [ACETYLSEROTONIN] | 61 | 31 |  |  | 100 nL (luminescence) [1]: 900; 200 nL (luminescence) [2]: 1056 |
| C[C@@H]1C[C@H]2[C@@H]3CCC4=CC(=O)C=C[C@]4(C)[C@@]3(Cl)[C@@H](O)C[C@]2(C)[C@@]1(OC(=O)c1ccco1)C(=O)CCl [MOMETASONEFUROATE, reference compound] | 56 | 140 | 1508 | 2936 |  |
| O=C1C(O)=C(O)C(=O)C(O)=C1O [TETROQUINONE] | 26 | 27 | 908 | 720 |  |
| COc1ccnc(C[S+]([O-])c2nc3cc(OC(F)F)ccc3[nH]2)c1OC (centres unmarked) [PANTOPRAZOLE, reference compound] | 25 | 60 |  |  | 100 nL (luminescence) [1]: 904; 200 nL (luminescence) [2]: 1504 |
| COc1ccc2c(c1)OCC(Cc1ccc(OC(C)=O)c(OC)c1)C2=O (centres unmarked) |  |  | 3740 | 1388 | Activation 100 nL: 221%; Activation 200 nL: 70% |
| O=C1CN(/N=C/c2ccc([N+](=O)[O-])o2)C(=O)N1 [NITROFURANTOIN, reference compound] | 30 | 47 |  |  |  |
| COC(=O)c1cc(OC)c(=O)c2c(OC)c(OC)ccc2c1 [METHYL7-DESOXYPURPUROGALLIN-7-CARBOXYLATETRIMETHYLETHER] |  |  | 8248 | 1932 | Activation 100 nL: 516%; Activation 200 nL: 105% |
| Cc1cc(O)ccc1Cl [CHLOROCRESOL] | 25 | -5 |  |  |  |
| O=c1cc(-c2ccc(O)c(O)c2)oc2cc(O)cc(O)c12 [Luteolin, 5,7,3′,4′-tetrahydroxyflavone] |  |  |  |  | hit strength in the screen (words): much lesser active than fisetin and quercetin; hit strength in the screen (words) (listed as luteolin): very poor Nrf2 activator |
| COc1cc2c(c(OC)c1OC)-c1ccc(=O)c(O)cc1[C@@H](NC(C)=O)CC2 [COLCHICEINE] | 35 | 11 | 672 | 584 |  |
